Patent EP0392423A2, “Substituted 1,4-7-10-tetraazacyclotridecanes, method for their preparation and use of the same for labelling substances with radionuclides” (priority 1989, dated 1990)
Where two headings read alike, the source gives them in different places.

Tested on: Transferrin
Conditions: human, serum
Protocol: Bei diesen Vergleichsversuchen wurde ¹¹¹In sowohl mit den bekannten 12- und 14-Ring-Cyclamen als auch mit dem erfindungsgemäßen Cyclam aus Beispiel 1 komplexiert und anschließend jeweils der ¹¹¹In-Austausch gegen Transferrin - ein bekanntermaßen gutes Komplexierungsmittel - in humanem Serum bei 37°C untersucht.

¹¹¹In-Austausch gegen Transferrin (12 h)	¹¹¹In-Austausch gegen Transferrin (120 h)	Substance
ca. 0,3%	ca. 4%	Dodecatetraacetate [DOTA]
< 0,1%	ca. 1%	12-(p-Nitrobenzyl)-1,4,7,10-tetraacetat-1,4,7,10-tetraazacyclotridecan [Beispiel 1]
